Laboratory results as given in BindingDB's records for PubMed 35973549 (Pharmaxis, 2022).

Test: Inhibition of recombinant human SSAO

Row | IC50 [nM] | SMILES
1 | 288 | Cc1ccccc1OC/C(=C/F)CN
2 | 6 | NCC(=CF)COc1ccccc1
3 | 19 | NC/C(=C\F)COc1ccccc1
